Laboratory results: patent publication US20240299438A1, “METHOD FOR DIAGNOSIS AND TREATMENT OF AUTISM SPECTRUM DISORDER ON BASIS OF ACTIVITY REGULATION MECHANISM OF DORMANT NEURAL STEM CELL” (DONGGUK UNIVERSITY INDUSTRY-ACADEMIC COOPERATION FOUNDATION, priority 2021, published 2024)

Columns and labels:
Shank3-deficient mice = experiment: Social interaction behavioral test (3 chambers) after drug injection; format: in vivo, mouse; settings: for time participating in social stimuli: 3-chamber test; for social preference index (persistence of effect): followed for 28 days after injection
Method: (§1) FIG. 5 (A) Immunostaining results of quiescent neural stem cells in the SVZ of control and Shank3 KO mice injected with saline, OICR-9429 (3 mg/kg, once/day, 3 days), romidepsin (0.25 mg/kg, once/day, 3 days), and clozapine (5 mg/kg, once/day, 3 days). The yellow arrows indicate GFAP+Sox2+Dlx2− qNSCs. Scale bar=20 μm. (B) Immunostaining results of quiescent neural stem cells in the DG of control and Shank3 KO mice injected with saline, OICR-9429 (3 mg/kg, once/day, 3 days), romidepsin (0.25 mg/kg, once/day, 3 days), and clozapine (5 mg/kg, once/day, 3 days). The yellow arrows indicate GFAP+Sox2+NeuN− qNSCs. Scale bar=20 μm. (C-E) Quantification results of FAP+Sox2+Id2+ (C) and GFAP+Sox2+Dlx2− (D) qNSCs in the SVZ and GFAP+Sox2+NeuN− (E) qNSCs in the DG. (F) Quantification results of BrdU+ NSCs in the SVZ injected with saline, OICR-9429, romidepsin, and clozapine. Control and Shank3 KO mice injected with each drug were injected intraperitoneally with a daily dose of BrdU (100 mg/kg/day). (G) Quantification results of DCX+ NPCs in the DG of control and Shank3 KO mice injected with each drug. (H) Immunofluorescence analysis of GFAP+,Sox2+,BrdU+ aNSCs in the SVZ of control and Shank3 KO mice injected with each drug. Scale bar=100 μm. (I) Quantification results of BrdU+ cells in the SVZ of saline- or OICR-9429-treated control and Shank3 mice at different time points after TMZ injection. (J) Analysis of protein expression levels of synaptic proteins and glutamate receptor subunits from control or Shank3 KO mice injected with saline or OICR-9429. (K) Results of representative heat maps showing the time spent in 3 chambers to assess the social interactions of control and Shank3 KO mice treated with saline, OICR-9429, romidepsin, clozapine, and VPA. (L-O) Social preference index percentages (Soc vs. NS ratio) in Shank3 KO mice injected with OICR-9429 (L), romidepsin (M), clozapine (N), and VPA (O) for 28 days.
In addition, to investigate the therapeutic effect of OICR-9429, a social interaction behavioral test was performed on Shank3-deficient mice injected with various neuropsychiatric drugs.

[1] = tested on: quiescent neural stem cells in SVZ and DG of Shank3-deficient mice; experiment: Immunostaining quantification of qNSCs, BrdU+ NSCs and DCX+ cells after drug injection; format: in vivo, mouse; settings: for number of GFAP+,Sox2+,Dlx2− qNSCs / number of GFAP+,Sox2+,Id2+ qNSCs: 2 weeks after administration, OICR-9429 3 mg/kg, romidepsin 0.25 mg/kg, clozapine 5 mg/kg, once/day, 3 days
Method: as §1
To provide a drug-based therapeutic strategy for autism, Shank3-deficient mice were treated with OICR-9429, which is an antagonist inhibiting H3K4 trimethylation by KMT2A, and the effect was investigated. […] Similarly, OICR-9429 injection reduced the number of GFAP+,Sox2+,NeuN− qNSCs during hippocampal neurogenesis in Shank3-deficient mice (FIGS. 5B and 5E). […] Finally, as a result of treatment with OICR-9429, the number of DCX-positive neuroblasts increased in the brains of Shank3-deficient mice (FIG. 5G).

[2] = tested on: qNSC activity in SVZ of Shank3-deficient mice; experiment: Recovery of BrdU-positive cells after temozolomide (TMZ) injection; format: in vivo, mouse; settings: after 7 days of TMZ injection, relative to control mice
Method: as §1, with “(J) Analysis of protein expression levels of synaptic proteins and glutamate receptor subunits from control or Shank3 KO mice injected with saline or OICR-9429. (K) Results of representative heat maps showing the time spent in 3 chambers to assess the social interactions of control and Shank3 KO mice treated with saline, OICR-9429, romidepsin, clozapine, and VPA. (L-O) Social preference index percentages (Soc vs. NS ratio) in Shank3 KO mice injected with OICR-9429 (L), romidepsin (M), clozapine (N), and VPA (O) for 28 days.” left out

[3] = tested on: HOMER1, SAPAP3, GluR1, NR2A; experiment: Western blot of synaptic proteins and glutamate receptor subunits in SHANK3-deficient human cultures; format: cell-based
[4] = tested on: Homer1, SAPAP3, GluR1, GluR2, NR2A, NR2B; experiment: Protein expression levels of synaptic proteins and glutamate receptor subunits in mice; format: in vivo, mouse; settings: Shank3-deficient mice
Method: as §1, with “(J) Analysis of protein expression levels of synaptic proteins and glutamate receptor subunits from control or Shank3 KO mice injected with saline or OICR-9429. (K) Results of representative heat maps showing the time spent in 3 chambers to assess the social interactions of control and Shank3 KO mice treated with saline, OICR-9429, romidepsin, clozapine, and VPA. (L-O) Social preference index percentages (Soc vs. NS ratio) in Shank3 KO mice injected with OICR-9429 (L), romidepsin (M), clozapine (N), and VPA (O) for 28 days.” left out

[5] = tested on: SHANK3-deficient human radial glia cells; experiment: Immunofluorescence of SHANK3-deficient human iPSC-derived neural stem (radial glia) cells; format: cell-based; settings: five days after treatment
Source text: FIG. 6 (A) Immunostaining results of GFAP+,SOX2+,ID2+ and GFAP+,SOX2+,NESTIN+ quiescent neural stem cells (radical glia cell, RGCs) from control or SHANK3-deficient iPSCs. White arrows indicate human RGCs. Scale bar=20 μm. (B) Quantification results of GFAP+,SOX2+,I D2+ RGCs with radial morphology. (C) Quantification results of GFAP+,SOX2+,NESTIN+ RGCs with radial morphology. (D) Immunostaining of GFAP+,SOX2+,EGFR+ aNSC and K167+ proliferating cells. Scale bar=20 μm. (E) Quantification results of GFAP+,SOX2+,EGFR+ aNSCs from control or SHANK3-deficient RGCs. (F) Quantification results of K167+ proliferating cells from control or SHANK3-deficient RGCs. (G) Immunofluorescence analysis of GFAP+,SOX2+,NESTIN+ RGCs from control or SHANK3-deficient NSCs treated with KMT2A-shRNA. The white arrow indicates cells with radial morphology. Scale bar=20 μm. (H) Quantification results of the number of GFAP+,SOX2+,NESTIN+ RGCs with radial morphology and GFAP+,SOX2+,NESTIN+ RGCs with nonradial morphology treated with KMT2A-shRNA. […]
The molecular mechanisms underlying the autism phenotypes associated with SHANK3 deficiency in human iPSC-derived neural differentiation were investigated. […] Additionally, it was analyzed whether or not SHANK3-deficient human radial glia cells are pharmacologically treated by OICR-9429.

CCCC(CCC)C(=O)O [VPA]
time participating in social stimuli (Shank3-deficient mice): no significant effect
social preference index (persistence of effect) (Shank3-deficient mice): did not improve

C/C=C1\NC(=O)[C@H]2CSSCC/C=C/[C@H](CC(=O)N[C@H](C(C)C)C(=O)N2)OC(=O)[C@H](C(C)C)NC1=O [romidepsin]
time participating in social stimuli (Shank3-deficient mice): no significant effect
number of GFAP+,Sox2+,Dlx2− qNSCs ([1]; SVZ, Shank3-deficient mice): no effect
number of GFAP+,Sox2+,Id2+ qNSCs ([1]; SVZ, Shank3-deficient mice): no effect

CN1CCN(C2=Nc3cc(Cl)ccc3Nc3ccccc32)CC1 [clozapine]
time participating in social stimuli (Shank3-deficient mice): no significant effect
number of GFAP+,Sox2+,Dlx2− qNSCs ([1]; SVZ, Shank3-deficient mice): no effect
number of GFAP+,Sox2+,Id2+ qNSCs ([1]; SVZ, Shank3-deficient mice): no effect

CN1CCN(c2ccc(-c3cccc(CN4CCOCC4)c3)cc2NC(=O)c2c[nH]c(=O)cc2C(F)(F)F)CC1 [OICR-9429]
time participating in social stimuli (Shank3-deficient mice): significantly more time
social preference index (persistence of effect) (Shank3-deficient mice): gradually improved up to 3 weeks after injection
BrdU-positive cells after TMZ injection [2]: significantly recovered
number of rapidly dividing cells labeled with BrdU ([1]; SVZ, Shank3-deficient mice): greatly increased
number of GFAP+,Sox2+,Dlx2− qNSCs ([1]; SVZ, Shank3-deficient mice): significantly decreased
number of GFAP+,Sox2+,Id2+ qNSCs ([1]; SVZ, Shank3-deficient mice): significantly decreased
number of DCX-positive neuroblasts ([1]; brains (DG) of Shank3-deficient mice): increased
number of GFAP+,Sox2+,NeuN− qNSCs ([1]; hippocampal neurogenesis (DG), Shank3-deficient mice): reduced
expression levels of synaptic proteins HOMER1 and SAPAP3 and glutamate receptor subunits GluR1 and NR2A [3]: greatly increased
expression of synaptic proteins Homer1 and SAPAP3 and glutamate receptor subunits GluR1, GluR2, NR2A, and NR2B [4]: significantly restored
proportion of GFAP+,SOX2+,NESTIN+ radial glia cells with non-radial morphology ([5]; SHANK3-deficient neural stem cells): significant decrease
proportion of GFAP+,SOX2+,NESTIN+ radial glia cells with radial morphology ([5]; SHANK3-deficient radial glia cells): decreased
